From US20230250098A1 (priority 2021, published 2023)
pIC50, pKi: −log10 of the molar value. Entries after “also recorded” stand apart in the source; their conditions may differ. Read-outs that look alike come from different tables or passages of the source.

Legend:
HA-mouse μOP = target: T1, HA-mouse μOP (Mus musculus, UniProt P42866); assay: GloSensor cAMP inhibition assay in transfected HEK cells; assay type: cell-based; details: for cAMP α: efficacy normalized to positive control DAMGO; for pIC50 / cAMP pIC50: inhibition of forskolin-induced cAMP
T1 construct: HA (N); expressed in transfected cells; host or cells: HEK cells, transient transfection together with pGloSensor22F

δOP [1] = target: T2, δOP (Homo sapiens, UniProt P41143); assay type: binding; design: membranes isolated; details: [3H]DPDPE, CHO membranes; for pKi: read-out: Binding Ki
FLAG-mouse δOP = target: T3, FLAG-mouse δOP (Mus musculus, UniProt P32300); assay: GloSensor cAMP inhibition assay in transfected HEK cells; assay type: cell-based; details: for cAMP α: efficacy normalized to positive control Leu-Enk; for pIC50 / cAMP pIC50: inhibition of forskolin-induced cAMP
T3 construct: FLAG (N); expressed in transfected cells; host or cells: HEK cells (HEK-293), transient transfection together with pGloSensor22F

C57Bl/6 wild-type mice [2] = assay: Two-bottle choice alcohol paradigm (drinking in the dark, 10% ethanol vs water); assay type: in vivo, mouse; details: systemic (i.p.) injection; modified 2-bottle choice; male C57BL/6 mice; FIG. 1
δOP [3] = target: T2, δOP; assay type: cell-based
FLAG-mouse κOP = target: T4, FLAG-mouse κOP (Mus musculus, UniProt P33534); assay type: cell-based; details: for pIC50: read-out: cAMP IC50
T4 construct: FLAG (N); expressed in transfected cells; host or cells: HEK cells, transient transfection together with pGloSensor22F

male, WT mice [4] = details: dose not stated; cited from earlier work
C57Bl/6 wild-type mice [5] = details: cited from earlier work; for alcohol consumption, in words (previous reports): dose not stated; for alcohol intake, in words (previous reports): 10 mg·kg^−1
WT mice [6] = details: 7-hydroxymitragynine dose not stated; paynantheine 10 mg·kg^−1; cited from earlier work
κOP = κOP (Homo sapiens, UniProt P41145); assay type: binding; design: membranes isolated; details: for pKi: read-out: Binding Ki
μOP [7] = target: T5, μOP (Homo sapiens, UniProt P35372); assay type: cell-based; details: normalized to positive control DAMGO
δOP KO mice [8] = assay: Seizure assay in δOP KO mice; details: 30 mg·kg^−1 i.p.
μOP [9] = target: T5, μOP; assay type: binding; design: membranes isolated; details: [3H]DAMGO, CHO membranes
male mice = assay: Tail flick thermal nociception assay; assay type: in vivo, mouse
δOP KO mice [10] = assay: Two-bottle choice alcohol paradigm in δOP KO mice; assay type: in vivo, mouse; details: 10 mg·kg^−1; male δOP KO mice
WT mice [11] = assay: Locomotor evaluation; details: 10 mg·kg^−1
wildtype mice = assay: Seizure assay (modified racine scale)
male, WT mice [12] = assay: Conditioned place preference (brief and extended); details: 10 mg·kg^−1

T3 sequence (P32300 whole entry): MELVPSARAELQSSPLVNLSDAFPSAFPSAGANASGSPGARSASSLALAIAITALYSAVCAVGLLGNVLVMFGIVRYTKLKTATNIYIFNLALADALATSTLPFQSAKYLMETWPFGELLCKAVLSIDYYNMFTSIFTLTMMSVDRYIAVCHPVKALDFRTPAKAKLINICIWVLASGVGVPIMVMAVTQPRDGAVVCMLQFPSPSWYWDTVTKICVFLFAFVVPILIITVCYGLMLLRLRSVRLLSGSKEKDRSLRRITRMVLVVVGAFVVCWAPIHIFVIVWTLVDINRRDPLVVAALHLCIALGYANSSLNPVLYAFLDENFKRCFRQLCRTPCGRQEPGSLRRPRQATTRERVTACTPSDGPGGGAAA
T2 sequence (P41143 whole entry): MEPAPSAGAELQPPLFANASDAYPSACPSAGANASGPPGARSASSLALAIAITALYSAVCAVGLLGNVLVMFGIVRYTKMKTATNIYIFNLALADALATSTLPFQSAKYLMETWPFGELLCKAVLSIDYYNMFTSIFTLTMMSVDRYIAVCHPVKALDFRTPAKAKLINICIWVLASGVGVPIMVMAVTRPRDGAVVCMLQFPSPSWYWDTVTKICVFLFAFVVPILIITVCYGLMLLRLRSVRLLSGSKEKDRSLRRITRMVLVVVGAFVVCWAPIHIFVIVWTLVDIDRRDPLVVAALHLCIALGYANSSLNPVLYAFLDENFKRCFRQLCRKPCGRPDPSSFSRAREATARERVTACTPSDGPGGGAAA
Sequence of κOP (P41145 whole entry): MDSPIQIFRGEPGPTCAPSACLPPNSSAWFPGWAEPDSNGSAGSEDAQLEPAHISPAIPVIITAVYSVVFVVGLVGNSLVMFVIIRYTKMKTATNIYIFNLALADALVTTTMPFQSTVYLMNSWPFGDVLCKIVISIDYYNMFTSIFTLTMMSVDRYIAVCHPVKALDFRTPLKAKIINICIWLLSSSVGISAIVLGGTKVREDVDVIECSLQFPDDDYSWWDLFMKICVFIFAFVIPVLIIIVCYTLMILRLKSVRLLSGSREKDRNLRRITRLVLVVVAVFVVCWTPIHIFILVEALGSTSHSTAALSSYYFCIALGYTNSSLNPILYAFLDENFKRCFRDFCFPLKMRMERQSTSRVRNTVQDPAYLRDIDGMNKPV
T5 sequence (P35372 whole entry): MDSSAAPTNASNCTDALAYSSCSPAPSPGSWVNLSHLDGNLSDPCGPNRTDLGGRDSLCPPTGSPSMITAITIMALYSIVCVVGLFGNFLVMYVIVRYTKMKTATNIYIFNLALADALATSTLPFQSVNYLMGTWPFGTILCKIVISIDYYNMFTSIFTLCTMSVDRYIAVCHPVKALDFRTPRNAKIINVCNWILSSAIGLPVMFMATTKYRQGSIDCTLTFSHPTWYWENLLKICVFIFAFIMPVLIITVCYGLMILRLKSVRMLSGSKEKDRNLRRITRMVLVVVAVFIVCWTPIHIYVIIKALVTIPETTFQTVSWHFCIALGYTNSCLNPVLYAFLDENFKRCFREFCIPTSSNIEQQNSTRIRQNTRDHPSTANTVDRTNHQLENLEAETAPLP
T4 sequence (P33534 whole entry): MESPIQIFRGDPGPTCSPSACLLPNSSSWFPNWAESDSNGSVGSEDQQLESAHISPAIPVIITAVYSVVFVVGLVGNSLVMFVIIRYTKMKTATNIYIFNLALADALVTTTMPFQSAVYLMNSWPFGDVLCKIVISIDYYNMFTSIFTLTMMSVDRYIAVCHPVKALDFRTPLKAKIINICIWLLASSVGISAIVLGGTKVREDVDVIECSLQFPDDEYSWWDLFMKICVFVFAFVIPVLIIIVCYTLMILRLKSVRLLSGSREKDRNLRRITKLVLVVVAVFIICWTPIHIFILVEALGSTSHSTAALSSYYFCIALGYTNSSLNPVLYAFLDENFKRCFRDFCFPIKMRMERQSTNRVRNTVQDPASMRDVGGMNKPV
T1 sequence (P42866 whole entry): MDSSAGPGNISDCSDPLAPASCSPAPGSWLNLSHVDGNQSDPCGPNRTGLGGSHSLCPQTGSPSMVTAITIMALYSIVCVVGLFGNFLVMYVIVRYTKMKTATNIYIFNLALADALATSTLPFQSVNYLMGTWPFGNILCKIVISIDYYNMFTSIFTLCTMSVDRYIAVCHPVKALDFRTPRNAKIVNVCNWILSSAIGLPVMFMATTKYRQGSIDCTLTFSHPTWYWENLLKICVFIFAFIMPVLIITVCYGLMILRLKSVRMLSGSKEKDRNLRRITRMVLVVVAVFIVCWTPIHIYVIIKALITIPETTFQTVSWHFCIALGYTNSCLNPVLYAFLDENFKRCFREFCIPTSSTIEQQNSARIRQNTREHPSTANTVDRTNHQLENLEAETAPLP

SMILES | cAMP α (HA-mouse μOP) | pIC50 (HA-mouse μOP) | cAMP pIC50 (HA-mouse μOP) | Binding pKi (δOP [1]) | pKi (δOP [1]) | cAMP α (FLAG-mouse δOP) | pIC50 (FLAG-mouse δOP) | cAMP pIC50 (FLAG-mouse δOP) | alcohol intake, in words (C57Bl/6 wild-type mice [2]) | cAMP pIC50 (FLAG-mouse κOP) | cAMP α (FLAG-mouse κOP) | pIC50 (FLAG-mouse κOP) | alcohol consumption, in words (previous reports) (C57Bl/6 wild-type mice [5]) | hyperlocomotion (previous reports) (WT mice [6]) | Binding pKi (κOP) | pKi (κOP) | other results
CC[C@@H]1CN2CC[C@@]3(O)C(=Nc4cccc(OC)c43)[C@@H]2C[C@@H]1/C(=C\OC)C(=O)OC [7-OH MITRA, 7-hydroxymitragynine, reference compound] | 84 ± 3 | 7.80 | 7.8±0.1 | 6.7 ± 0.1 (4) | 7.72 | 80 ± 8 | 6.02 | *5.7 ± 0.2 (8) | reduce alcohol intake | *6.2 ± 0.3 (9) | 77 ± 5 | 5.98 | decrease alcohol consumption | caused both CPP and hyperlocomotion | 6.9 ± 0.1 (4) | 7.85 | β-arrestin 2 pEC50 (δOP [3]): 6.4 ± 0.3 (6); β-arrestin 2 α (δOP [3]; normalized to positive control Leu-Enk): 14 ± 1; conditioned place preference (previous report) (male, WT mice [4]): caused both CPP and hyperlocomotion
C[C@@H](NC(=O)[C@@H](N)Cc1ccc(O)cc1)C(=O)NCC(=O)N(C)[C@@H](Cc1ccccc1)C(=O)NCCO [DAMGO, (2S)-2-[[2-[[(2R)-2-[[(2S)-2-Amino-3-(4-hydroxyphenyl)propanoyl]amino]propanoyl]amino]acetyl]-methylamino]-N-(2-hydroxyethyl)-3-phenylpropanamide, reference compound] | 100 | – | – | – | – | – | – | – | – | – | – | – | – | – | – | – | β-arrestin 2 α (μOP [7]): 100
C=C[C@H]1CN2CCc3c([nH]c4cccc(OC)c34)[C@@H]2C[C@@H]1/C(=C\OC)C(=O)OC [PAYN, paynantheine, reference compound] | 100 ± 0 | 5.39 | *5.4 ± 0.1 (5) | 5.3 ± 0.1 (5) | 5.11 | 64 ± 13 | 5.45 | *5.6 ± 0.2 (4) | reduce alcohol intake | *5.3 ± 0.2 (4) | 95 ± 5 | 5.13 | decrease alcohol consumption | without causing hyperlocomotion | 5.5 ± 0.1 (5) | 5.40 | seizure activity in δOP KO mice (δOP KO mice [8]): still present in δOP KO mice; Binding pKi (μOP [9]): 6.3 ± 0.1 (4); pKi (μOP [9]; read-out: Binding Ki): 7.28; block of morphine analgesia (antagonist mode) (male mice; 10 mg·kg^−1, then morphine 6 mg·kg^−1 s.c. 10 minutes later): did not produce antinociception (paired, two-tailed t-test, t=0.6193, df=9, p=0.5511) or block morphine analgesia; antinociception (agonist mode) (male mice; 10 mg·kg^−1, 30 minutes after drug): did not produce antinociception; ethanol consumption in δOP KO mice, in words (δOP KO mice [10]): did not significantly decrease ethanol consumption; also recorded: alcohol consumption was not significantly altered; ambulation / locomotor activity (WT mice [11]): a trend towards decreased locomotor activity; alcohol intake, in words (previous reports) (C57Bl/6 wild-type mice [5]; listed as Paynantheine): decrease alcohol intake; alcohol intake, in words (previous reports) (C57Bl/6 wild-type mice [5]; listed as paynantheine): significant reduction; seizure activity (wildtype mice; 10 mg·kg^−1): not showing overt signs of seizure activity; seizure activity (wildtype mice; 30 mg·kg^−1): induced seizures; conditioned place preference, brief paradigm (male, WT mice [12]): induces conditioned place aversion (CPA); conditioned place preference, extended protocol (male, WT mice [12]; four conditioning sessions each for drug and vehicle): does not produce place preference
